From ChEMBL document CHEMBL2074176, “Multidrug resistance protein 1 (MRP1, ABCC1) mediates resistance to mitoxantrone via glutathione-dependent drug efflux” (Mol Pharmacol, 2006)
pIC50: −log10 of the molar value.

Columns and labels:
Type in all cases: functional, cell-based
[1] = biological target: T1, Multidrug resistance-associated protein 1 (Homo sapiens, UniProt P33527); test: TP_TRANSPORTER: cell accumulation in MCF7/MRP1-M6 cells
[2] = biological target: T1, Multidrug resistance-associated protein 1; test: TP_TRANSPORTER: cell accumulation in MCF7/MRP1-M24 cells
[3] = biological target: T1, Multidrug resistance-associated protein 1; test: TP_TRANSPORTER: transport in etoposide-selected MCF7 cells
[4] = biological target: T1, Multidrug resistance-associated protein 1; test: TP_TRANSPORTER: ATP- and GSH-dependent transport in MCF7/MRP1-10 cells
[5] = biological target: T1, Multidrug resistance-associated protein 1; test: TP_TRANSPORTER: cell accumulation in MCF7/MRP1-10 cells

T1 sequence (P33527 whole entry): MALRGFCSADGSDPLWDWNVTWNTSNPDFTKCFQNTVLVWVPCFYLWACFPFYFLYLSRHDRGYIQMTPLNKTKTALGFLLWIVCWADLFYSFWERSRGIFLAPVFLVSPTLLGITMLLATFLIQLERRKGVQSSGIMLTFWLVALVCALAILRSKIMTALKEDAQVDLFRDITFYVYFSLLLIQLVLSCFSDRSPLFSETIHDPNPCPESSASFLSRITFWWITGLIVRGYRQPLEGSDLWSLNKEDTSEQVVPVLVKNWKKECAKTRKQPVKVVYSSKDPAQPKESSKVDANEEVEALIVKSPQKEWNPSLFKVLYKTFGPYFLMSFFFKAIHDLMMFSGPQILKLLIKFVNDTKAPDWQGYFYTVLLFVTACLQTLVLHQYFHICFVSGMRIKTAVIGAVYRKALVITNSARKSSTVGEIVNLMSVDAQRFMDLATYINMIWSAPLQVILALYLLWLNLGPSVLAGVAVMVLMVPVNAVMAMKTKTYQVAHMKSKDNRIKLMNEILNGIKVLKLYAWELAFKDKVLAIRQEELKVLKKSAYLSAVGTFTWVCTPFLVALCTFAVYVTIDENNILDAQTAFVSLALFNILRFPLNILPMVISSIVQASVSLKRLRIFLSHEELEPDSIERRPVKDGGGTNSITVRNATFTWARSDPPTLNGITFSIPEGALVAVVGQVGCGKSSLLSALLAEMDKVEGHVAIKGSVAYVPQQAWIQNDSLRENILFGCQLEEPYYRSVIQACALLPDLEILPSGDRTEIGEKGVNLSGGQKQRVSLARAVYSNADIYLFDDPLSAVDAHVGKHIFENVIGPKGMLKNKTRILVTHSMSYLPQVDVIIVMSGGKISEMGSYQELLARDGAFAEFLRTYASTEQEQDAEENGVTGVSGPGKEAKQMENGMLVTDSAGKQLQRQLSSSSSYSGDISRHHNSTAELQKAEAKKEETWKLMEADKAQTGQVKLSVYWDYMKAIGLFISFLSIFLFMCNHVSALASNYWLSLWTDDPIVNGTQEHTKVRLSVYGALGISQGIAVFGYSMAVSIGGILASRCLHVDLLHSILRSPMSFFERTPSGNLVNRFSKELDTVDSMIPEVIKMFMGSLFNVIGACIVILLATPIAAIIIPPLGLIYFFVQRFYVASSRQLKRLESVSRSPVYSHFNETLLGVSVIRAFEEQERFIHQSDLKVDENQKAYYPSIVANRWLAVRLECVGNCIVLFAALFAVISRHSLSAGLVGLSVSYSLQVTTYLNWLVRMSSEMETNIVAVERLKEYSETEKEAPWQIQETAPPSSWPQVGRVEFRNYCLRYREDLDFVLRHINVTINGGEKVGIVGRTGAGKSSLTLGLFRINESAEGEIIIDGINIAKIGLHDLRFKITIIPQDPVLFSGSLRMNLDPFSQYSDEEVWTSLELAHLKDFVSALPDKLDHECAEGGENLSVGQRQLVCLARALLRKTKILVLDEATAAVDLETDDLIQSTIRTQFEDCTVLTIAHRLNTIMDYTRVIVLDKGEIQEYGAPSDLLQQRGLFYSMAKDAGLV

SMILES: O=C1c2c(O)ccc(O)c2C(=O)c2c(NCCNCCO)ccc(NCCNCCO)c21 [MITOXANTRONE]
- pIC50 [1]: 8.82
- pIC50 [2]: 8.82
- Activity [3]: substrate [+]
- Activity [4]: substrate [+]
- pIC50 [5]: 8.72
